The values below come from US6403826B1, “Corrosion-inhibiting coating composition for metals” (Ciba Specialty Chemicals Corporation, priority 1996, dated 2002).

Assay [1] is described as follows: Subfilm migration in the wet state (cathodic delamination) along the artificial damage, DIN 53 167, after the salt spray test. Particulars: 1% inhibitor; after salt spray 168 hours; coat thickness 50 to 55 μm; lesser = more effective. From the text:
(§1) The coating formulations are applied to steel panels (19×10.5 cm) of the Bonder type (cold-rolled degreased steel; manufactured by Chemetall, Frankfurt am Main/Germany) in a coat thickness which after drying amounts to 50-55 μm. Drying conditions: 10 days at room temperature.
(§2) Prior to the beginning of weathering, the “coating films” undergo defined damage in the form of a parallel cut (i.e. parallel to the longest panel edge) using a Bonder cross-cut instrument (Mod. 205; manufactured and sold by Lau, 5870 Hemer/Germany). The panel edges are protected by applying an edge protector (Icosit® 255; manufactured by Inertol AG, Winterthur/Switzerland).
(§3) As additional assessment criteria, the “subfilm migration in the wet state” (cathodic delamination) along the artificial damage side is determined, after the end of the salt spray test, in accordance with DIN 53 167. […] After the end of the humidity test, the wet adhesion of the coating formulation is determined in accordance with DIN 53 151 by making a crosshatch cut followed by the tape tearoff test. According to DIN 53 151 (scale from Gt 0 to Gt 5) a crosshatch value of Gt 0 corresponds to completely intact adhesion of the coating film, whereas Gt 5 corresponds to inadequate adhesion.

A short description of assay [2]: Humidity test ASTM D 4585-87, 330 hours, of acrylic dispersion coating (Maincote HG-54) with corrosion inhibitor; corrosion protection factor CPF. Conditions: humidity test 330 hours, coat thickness 45 to 50 μm; for CPF film / CPF metal: maximum 6 points, greater = better; for CPF: sum of film and metal, maximum 12 points. As to the method: (§4) In order to prepare the coating formulation (acrylic dispersion based on Maincote HG-54), components 1 to 8 (formulation without amine salt) and components 1 to 9 (formulation comprising an amine salt) are employed in the sequence stated (see Table 1).
(§5) Components 1 to 8 or 1 to 9 are dispersed using a high-speed stirrer at 3000 revolutions/minute to a degree of ground fineness or ground particulate nature of <15 μm. The outcome of dispersing the pigment paste thus obtained is assessed by determining the grindometer value (ISO 1524).The amount of the novel salts employed is based on the overall solids content of the formulation without salt (overall solids content 47%). Accordingly, an addition of, say, 1.0% of amine salt to 100 g of dispersion denotes, for example, an amount of 0.47 g. To complete the coating formulation, components 10 to 16 of Table 1 are added at a reduced stirring speed (1000 revolutions/minute) in the stated sequence. Subsequently, the pH of the formulation is checked and, if appropriate, is adjusted prior to application to a value of from 8 to 8.5 using ammonia solution (25% strength).
[…] Drying conditions: 10 days at room temperature.
as §2
(§6) The samples are subsequently subjected to accelerated weathering in a salt spray test in accordance with DIN 50 021 SS for 168 hours (Table 2) or to a humidity test in accordance with ASTM D 4585-87 for 330 hours (Table 3). The assessment of the results is based on the relevant DIN standards in accordance with an evaluation key, by the indication of a corrosion protection value CPF (Corrosion Protection Factor). The CPF is an additive term composed of an assessment of the coating (film) and an assessment of visible underfilm corrosion and appearance of the metal surface, and has a maximum of 12 points. The individual maximum values are 6 points each. The greater the CPF, the better the protection against corrosion.

Assay [3] can be described thus: Wet adhesion of the coating formulation, DIN 53 151 crosshatch cut and tape tearoff test, after the humidity test. Particulars: after humidity test 330 hours, scale Gt 0 (completely intact adhesion) to Gt 5 (inadequate adhesion). How it is done:
as §1, §3

Assay [4] in a line: Salt spray test DIN 50 021 SS, 168 hours, of acrylic dispersion coating (Maincote HG-54) with corrosion inhibitor; corrosion protection factor CPF. Conditions: salt spray 168 hours, coat thickness 50 to 55 μm; for CPF film / CPF metal: 1% inhibitor on overall solids content, maximum 6 points, greater = better; for CPF: 1% inhibitor, sum of film and metal, maximum 12 points. As to the method: as §4, §5, §1, §2, §6

The mark [5] stands for this setting: 1% inhibitor on overall solids content.
[6] abbreviates: 2% inhibitor on overall solids content.

For `CCCCCCCCCCCCN(CP(=O)(O)O)CP(=O)(O)O.CCN1CCOCC1.CCN1CCOCC1` [Example 7, n-Dodecylaminobismethylenephosphonic Acid, Salt with Two Equivalents of N-ethylmorpholine], the “Cathodic delamination (mm total)” value in assay [1] came to 16 mm. Further, the figures for the CPF film in assay [2] (setting [5]), in assay [2] (setting [6]) and in assay [4] were 5.2, 6.0 and 5.4, respectively. Besides, the CPF metal in assay [2] (setting [5]) amounted to 3.0; in assay [2] (setting [6]) it was 4.5; in assay [4], 5.6. For the same compound, the figures for the CPF in assay [2] (1% inhibitor), in assay [2] (2% inhibitor) and in assay [4] were 8.2, 10.5 and 11.0, respectively. For the same compound, the “Wet adhesion (Gt value)” value in assay [3] (1% inhibitor) and in assay [3] (2% inhibitor) was 0 Gt each time.

For `CCCCCCN(CP(=O)(O)O)CP(=O)(O)O.CCN1CCOCC1.CCN1CCOCC1` [Example 10, n-Hexylaminobismethylenephosphonic Acid, Salt with Two Equivalents of N-ethylmorpholine], the “Cathodic delamination (mm total)” value in assay [1] was found to be 24 mm. Besides, the CPF film in assay [2] (setting [5]) is reported as 4.0; in assay [2] (setting [6]) it was 4.4; in assay [4], 4.6. The figures for the CPF metal in assay [2] (setting [5]), in assay [2] (setting [6]) and in assay [4] were 3.8, 6.0 and 5.4, respectively. Besides, the CPF came out at 7.8 in assay [2] (1% inhibitor), 10.4 in assay [2] (2% inhibitor) and 10.0 in assay [4]. The “Wet adhesion (Gt value)” value in assay [3] (1% inhibitor) and in assay [3] (2% inhibitor) was 0 Gt in each case.
